Experimental findings from patent US8017602B2, “N-(2-(2-(5-hydroxy-3-oxo-3,4-dihydro-2H-benzo[b][1,4]oxazin-8-yl)ethylamino)ethyl)-3-(phenethoxy)propanamide derivatives, processes for their preparation, pharmaceutical compositions containing them and their use in therapy” (AstraZeneca AB, priority 2008, dated 2011) are described below.

Assay [1] addresses T1, recombinant human α1D receptor (Homo sapiens, UniProt P25100).
T1 construct: expressed in transfected cells; host or cells: HEK293
T1 sequence (P25100 1-572): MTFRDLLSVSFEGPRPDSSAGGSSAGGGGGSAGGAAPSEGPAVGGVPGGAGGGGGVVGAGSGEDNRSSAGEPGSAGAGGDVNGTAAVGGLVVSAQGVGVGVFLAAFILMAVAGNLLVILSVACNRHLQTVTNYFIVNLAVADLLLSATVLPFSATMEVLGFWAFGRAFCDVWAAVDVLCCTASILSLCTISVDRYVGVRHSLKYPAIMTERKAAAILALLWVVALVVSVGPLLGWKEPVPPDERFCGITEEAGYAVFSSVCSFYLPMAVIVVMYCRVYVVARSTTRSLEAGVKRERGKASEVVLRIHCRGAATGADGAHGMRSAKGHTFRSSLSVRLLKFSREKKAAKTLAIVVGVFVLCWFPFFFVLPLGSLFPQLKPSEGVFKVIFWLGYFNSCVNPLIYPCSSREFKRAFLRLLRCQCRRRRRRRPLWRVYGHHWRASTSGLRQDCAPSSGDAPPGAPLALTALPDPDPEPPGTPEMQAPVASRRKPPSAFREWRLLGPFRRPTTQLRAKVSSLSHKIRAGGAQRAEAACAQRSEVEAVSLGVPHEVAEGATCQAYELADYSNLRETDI
The assay can be described thus: Adrenergic α1D selectivity binding assay ([3H]-prazosin). Conditions: inhibition of [3H]-prazosin binding, HEK293 membranes, read-out: α1 bind pIC50 (converted). As for the experimental part:
Membranes were prepared from human embryonic kidney 293 (HEK293) cells expressing recombinant human α1D receptor. These were diluted in Assay Buffer (50 mM HEPES, 1 mM EDTA, pH 7.4) to provide a final concentration of membranes that gave a clear window between maximum and minimum specific binding.
Assays were performed in U-bottomed 96-well polypropylene plates. 10 μl [^3H]-prazosin (0.3 nM final concentration) and 10 μl of test compound (10× final concentration) were added to each test well. For each assay plate 8 replicates were obtained for [^3H]-prazosin binding in the presence of 10 μl vehicle (10% (v/v) DMSO in Assay Buffer; defining maximum binding) or 10 μL BMY7378 (10 μM final concentration; defining non-specific binding (NSB)). Membranes were then added to achieve a final volume of 100 μL. The plates were incubated for 2 h at room temperature and then filtered onto PEI coated GF/B filter plates, pre-soaked for 1 h in Assay Buffer, using a 96-well plate Tomtec cell harvester. Five washes with 250 μl wash buffer (50 mM HEPES, 1 mM EDTA, pH 7.4) were performed at 4° C. to remove unbound radioactivity. The plates were dried then sealed from underneath using Packard plate sealers and MicroScint-O (50 μl) was added to each well. The plates were sealed (TopSeal A) and filter-bound radioactivity was measured with a scintillation counter (TopCount, Packard BioScience) using a 3-minute counting protocol.
Total specific binding (B0) was determined by subtracting the mean NSB from the mean maximum binding. NSB values were also subtracted from values from all other wells. […] Data was fitted to a four parameter logistic equation to determine the compound potency, which was expressed as pIC50 (negative log molar concentration inducing 50% inhibition of [^3H]-prazosin binding).

Assay [2] concerns the target T2, recombinant human Dopamine Subtype D2s receptors (Homo sapiens, UniProt P14416).
T2 construct: purchased Perkin Elmer
The assay is described as follows: Dopamine D2 selectivity binding assay ([3H]-spiperone). Conditions: inhibition of [3H]-spiperone binding, human D2s membranes; read-out: D2 bind pIC50 (converted). As for the experimental part:
Membranes containing recombinant human Dopamine Subtype D2s receptors were obtained from Perkin Elmer. These were diluted in Assay Buffer (50 mM HEPES, 1 mM EDTA, 120 mM NaCl, 0.1% gelatin, pH 7.4) to provide a final concentration of membranes that gave a clear window between maximum and minimum specific binding.
Assays were performed in U-bottomed 96-well polypropylene plates. 30 μL [^3H]-spiperone (0.16 nM final concentration) and 30 μl of test compound (10× final concentration) were added to each test well. For each assay plate 8 replicates were obtained for [^3H]-spiperone binding in the presence of 30 μL vehicle (10% (v/v) DMSO in Assay Buffer; defining maximum binding) or 30 μl Haloperidol (10 μM final concentration; defining non-specific binding (NSB)). Membranes were then added to achieve a final volume of 300 μL. The plates were incubated for 2 h at room temperature and then filtered onto PEI coated GF/B filter plates, pre-soaked for 1 h in Assay Buffer, using a 96-well plate Tomtec cell harvester. Five washes with 250 μl wash buffer (50 mM HEPES, 1 mM EDTA, 120 mM NaCl, pH 7.4) were performed at 4° C. to remove unbound radioactivity. The plates were dried then sealed from underneath using Packard plate sealers and MicroScint-O (50 μl) was added to each well. The plates were sealed (TopSeal A) and filter-bound radioactivity was measured with a scintillation counter (TopCount, Packard BioScience) using a 3-minute counting protocol.
Total specific binding (B0) was determined by subtracting the mean NSB from the mean maximum binding. NSB values were also subtracted from values from all other wells. […] Data was fitted to a four parameter logistic equation to determine the compound potency, which was expressed as pIC50 (negative log molar concentration inducing 50% inhibition of [^3H]-spiperone binding).

Counter-ions that a name gives are not always drawn.

T2 sequence (P14416 1-414 isoform P14416-2): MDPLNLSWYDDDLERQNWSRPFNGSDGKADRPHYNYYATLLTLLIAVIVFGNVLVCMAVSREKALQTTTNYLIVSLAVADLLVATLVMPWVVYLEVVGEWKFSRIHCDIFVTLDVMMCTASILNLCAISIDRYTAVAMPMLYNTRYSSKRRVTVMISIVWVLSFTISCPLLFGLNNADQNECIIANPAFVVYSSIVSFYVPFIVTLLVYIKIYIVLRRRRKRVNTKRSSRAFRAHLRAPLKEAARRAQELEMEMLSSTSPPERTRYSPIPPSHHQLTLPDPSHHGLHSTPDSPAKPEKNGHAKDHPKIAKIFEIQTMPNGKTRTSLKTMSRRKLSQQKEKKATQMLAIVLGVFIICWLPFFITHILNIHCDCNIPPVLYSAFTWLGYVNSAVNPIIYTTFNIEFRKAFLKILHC

In the case of `CCC[C@@H](C)N(CCNCCc1ccc(O)c2c1OCC(=O)N2)C(=O)CCOCCc1cccc(-c2cnn(C(C)C)c2)c1` [Example 21, (R)—N-(2-(2-(5-Hydroxy-3-oxo-3,4-dihydro-2H-benzo[b][1,4]oxazin-8-yl)ethylamino)ethyl)-3-(3-(1-isopropyl-1H-pyrazol-4-yl)phenethoxy)-N-(pentan-2-yl)propanamide Trifluoroacetic Acid Salt], the IC50 in assay [1] was 794 nM; in assay [2], 3.16 µM.
In the same order, the values of `CC(C)n1cc(-c2cccc(CCOCCC(=O)N(CCNCCc3ccc(O)c4c3OCC(=O)N4)C3CCCC3)c2)cn1` [Example 22, N-Cyclopentyl-N-(2-(2-(5-hydroxy-3-oxo-3,4-dihydro-2H-benzo[b][1,4]oxazin-8-yl)ethylamino)ethyl)-3-(3-(1-isopropyl-1H-pyrazol-4-yl)phenethoxy)propanamide Trifluoroacetic Acid Salt] are 794 nM and 2.51 µM.
For the molecule `CCn1cc(-c2cccc(CCOCCC(=O)N(CCNCCc3ccc(O)c4c3OCC(=O)N4)C3CCCC3)c2)cn1` [Example 24, N-Cyclopentyl-3-(3-(1-ethyl-1H-pyrazol-4-yl)phenethoxy)-N-(2-(2-(5-hydroxy-3-oxo-3,4-dihydro-2H-benzo[b][1,4]oxazin-8-yl)ethylamino)ethyl)propanamide Trifluoroacetic Acid Salt], the figures for the IC50 in assay [1] and in assay [2] were 1260 nM and 3.16 µM, respectively.
For the molecule `CCn1cc(-c2cccc(CCOCCC(=O)N(CCNCCc3ccc(O)c4c3OCC(=O)N4)[C@H](C)C(C)(C)C)c2)cn1` [Example 25, (R)—N-(3,3-Dimethylbutan-2-yl)-3-(3-(1-ethyl-1H-pyrazol-4-yl)phenethoxy)-N-(2-(2-(5-hydroxy-3-oxo-3,4-dihydro-2H-benzo[b][1,4]oxazin-8-yl)ethylamino)ethyl)propanamide Trifluoroacetic Acid Salt], the IC50 in assay [1] is 316 nM; in assay [2] it was 3.98 µM.
`C[C@@H](N(CCNCCc1ccc(O)c2c1OCC(=O)N2)C(=O)CCOCCc1cccc(-c2cnn(C)c2)c1)C(C)(C)C` [Example 26, (R)—N-(3,3-Dimethylbutan-2-yl)-N-(2-(2-(5-hydroxy-3-oxo-3,4-dihydro-2H-benzo[b][1,4]oxazin-8-yl)ethylamino)ethyl)-3-(3-(1-methyl-1H-pyrazol-4-yl)phenethoxy)propanamide Trifluoroacetic Acid Salt]: the IC50 in assay [1] is 501 nM; in assay [2], 2.51 µM.
Turning to `Cc1nc(-c2cccc(CCOCCC(=O)N(CCNCCc3ccc(O)c4c3OCC(=O)N4)C3CCCCC3)c2)no1` [Example 27, N-Cyclohexyl-N-(2-(2-(5-hydroxy-3-oxo-3,4-dihydro-2H-benzo[b][1,4]oxazin-8-yl)ethylamino)ethyl)-3-(3-(5-methyl-1,2,4-oxadiazol-3-yl)phenethoxy)propanamide Trifluoroacetic Acid Salt], the IC50 is 1000 nM in assay [1] and greater than 5.01 µM in assay [2].
The corresponding values for `CCn1cc(-c2cccc(CCOCCC(=O)N(CCNCCc3ccc(O)c4c3OCC(=O)N4)C3CCCCC3)c2)cn1` [Example 28, N-Cyclohexyl-3-(3-(1-ethyl-1H-pyrazol-4-yl)phenethoxy)-N-(2-(2-(5-hydroxy-3-oxo-3,4-dihydro-2H-benzo[b][1,4]oxazin-8-yl)ethylamino)ethyl)propanamide] are 794 nM and greater than 5.01 µM.
For the molecule `CCn1ccnc1-c1cccc(CCOCCC(=O)N(CCNCCc2ccc(O)c3c2OCC(=O)N3)C2CCCCC2)c1` [Example 29, N-Cyclohexyl-3-(3-(1-ethyl-1H-imidazol-2-yl)phenethoxy)-N-(2-(2-(5-hydroxy-3-oxo-3,4-dihydro-2H-benzo[b][1,4]oxazin-8-yl)ethylamino)ethyl)propanamide Trifluoroacetic Acid Salt], the values for the IC50 in assay [1] and in assay [2] were 1580 nM and 2 µM, respectively.
In the same order, the values of `CCCC[C@@H](C)N(CCNCCc1ccc(O)c2c1OCC(=O)N2)C(=O)CCOCCc1cccc(-c2cnn(C)c2)c1` [Example 30, (R)—N-(Hexan-2-yl)-N-(2-(2-(5-hydroxy-3-oxo-3,4-dihydro-2H-benzo[b][1,4]oxazin-8-yl)ethylamino)ethyl)-3-(3-(1-methyl-1H-pyrazol-4-yl)phenethoxy)propanamide Trifluoroacetic Acid Salt] are 1000 nM and 2.51 µM.
In the same order, the values of `Cn1cc(-c2cccc(CCOCCC(=O)N(CCNCCc3ccc(O)c4c3OCC(=O)N4)C3CCCCCC3)c2)cn1` [Example 31, N-Cycloheptyl-N-(2-(2-(5-hydroxy-3-oxo-3,4-dihydro-2H-benzo[b][1,4]oxazin-8-yl)ethylamino)ethyl)-3-(3-(1-methyl-1H-pyrazol-4-yl)phenethoxy)propanamide Trifluoroacetic Acid Salt] are 398 nM and 3.98 µM.
For `Cc1nc(-c2cccc(CCOCCC(=O)N(CCNCCc3ccc(O)c4c3OCC(=O)N4)C3CCCCC3)c2)[nH]c1C` [Example 32, N-Cyclohexyl-3-(3-(4,5-dimethyl-1H-imidazol-2-yl)phenethoxy)-N-(2-(2-(5-hydroxy-3-oxo-3,4-dihydro-2H-benzo[b][1,4]oxazin-8-yl)ethylamino)ethyl)propanamide], the IC50 in assay [1] is 631 nM; in assay [2], 0.631 µM.
On to `Cn1ccnc1-c1cccc(CCOCCC(=O)N(CCNCCc2ccc(O)c3c2OCC(=O)N3)C2CCCCC2)c1` [Example 33, N-Cyclohexyl-N-(2-(2-(5-hydroxy-3-oxo-3,4-dihydro-2H-benzo[b][1,4]oxazin-8-yl)ethylamino)ethyl)-3-(3-(1-methyl-1H-imidazol-2-yl)phenethoxy)propanamide], for which the IC50 is 2000 nM in assay [1] and 3.16 µM in assay [2].
In the same order, the values of `Cc1nc(-c2cccc(CCOCCC(=O)N(CCNCCc3ccc(O)c4c3OCC(=O)N4)C3CCCCC3)c2)cn1C` [Example 35, N-Cyclohexyl-3-(3-(1,2-dimethyl-1H-imidazol-4-yl)phenethoxy)-N-(2-(2-(5-hydroxy-3-oxo-3,4-dihydro-2H-benzo[b][1,4]oxazin-8-yl)ethylamino)ethyl)propanamide Trifluoroacetic Acid Salt] are 2000 nM and 3.16 µM.
Take `COCCn1cc(-c2cccc(CCOCCC(=O)N(CCNCCc3ccc(O)c4c3OCC(=O)N4)C3CCCCC3)c2)cn1` [Example 36, N-Cyclohexyl-N-(2-(2-(5-hydroxy-3-oxo-3,4-dihydro-2H-benzo[b][1,4]oxazin-8-yl)ethylamino)ethyl)-3-(3-(1-(2-methoxyethyl)-1H-pyrazol-4-yl)phenethoxy)propanamide Trifluoroacetic Acid Salt]: the figures for the IC50 in assay [1] and in assay [2] were 2510 nM and greater than 7.94 µM, respectively.
